Publication PMC2792609, “Effect of methomyl on hepatic mixed function oxidases in rats” (Indian Journal of Pharmacology, 2008)

Assays:
cytochrome P450 = experiment: Hepatic microsomal cytochrome P450 level; format: in vivo, rat; settings: for decrease in cytochrome P450 content: 3 days
Method: (§1) Adult male rats (weighing 200-230 g) were divided into four groups of six animals each. Group 1 received an equivalent amount of saline and served as control. Animals from group 2, 3, and 4 were given methomyl 1, 2, and 4 mg/kg body weight i.p. respectively, between 8: 00 a.m. and 9:00 a.m., for three consecutive days. In the second set of experiments, adult male rats were divided into four groups. Animals from group 2, 3, and 4 were injected with 4 mg/kg body weight methomyl for one, three, and five successive days. The volume injected into the rats of body weight 200 g was 1 ml. In another experiment, adult female rats and old male rats (weighing 350-450 g, 8 months old) were divided into two groups of six animals each. Group 2 of each category received methomyl (4 mg/kg body weight, i.p., for three successive days), and group 1 of each category received an equivalent amount of saline and served as the control group.
(§2) The rats were sacrificed by cervical dislocation, 24 hours after the last dose. Their livers were perfused in situ with ice cold 1.15% KCl containing 0.05 mM EDTA, rapidly excised, blotted dry, weighed, minced and homogenized with two volumes of ice cold 0.25 M sucrose solution, in a Potter-Elvehjem type homogenizer. The homogenate was centrifuged at 10,000 × g for 10 min, in a refrigerated centrifuge (REMI C-24). The microsomes were isolated by the procedure described by of Cinti et al.[4] The microsomal pellet was suspended in phosphate buffer (0.1 M, pH 7.4) and the suspension was used for the microsomal enzyme assays. Microsomal protein content was measured by the Biuret method, using bovine serum albumin as the standard.[5]
(§3) The microsomal electron transport components (cytochrome P450 and cytochrome b5) were determined using Hitachi UV-Visible double beam recording spectrophotometer, by the procedure of Omura and Sato.[67] Cytochrome c reductase activity was determined using the method recommended by Masters et al.[8] Aminopyrine N-demethylase activity was assayed according to the procedure described by Schenkman et al.[9] Formaldehyde liberated during N-demethylation was estimated by the procedure described by Nash.[10] Aniline hydroxylase assay was performed using the procedure reported by Govindwar and Dalvi.[11]

Aniline hydroxylase = experiment: Hepatic microsomal aniline hydroxylase activity; format: in vivo, rat; settings: for decrease in the activity of aniline hydroxylase / decrease in activity of aniline hydroxylase: vs control
Method: as §1, §2, §3

Serum total protein [1] = format: in vivo, rat; settings: for decrease in total protein content: 3 days
Method: as §1

Alkaline phosphatase = experiment: Serum alkaline phosphatase activity; format: in vivo, rat; settings: for increase in serum alkaline phosphatase activity: 3 days
Method: as §1, with “Group 2 of each category received methomyl (4 mg/kg body weight, i.p., for three successive days), and group 1 of each category received an equivalent amount of saline and served as the control group.” left out
Alanine aminotransferase and aspartate aminotransferase activity was measured using the Reitman and Frankel[12] method. Alkaline phosphatase activity was measured using Span diagnostic kits.[13] Cholinesterase activity was measured using the kinetic test method of Knedel et al.[14]

Hemoglobin = Hemoglobin content; format: in vivo, rat; settings: for decrease in hemoglobin content: 3 days
Method: Group 1 received an equivalent amount of saline and served as control. Animals from group 2, 3, and 4 were given methomyl 1, 2, and 4 mg/kg body weight i.p. respectively, between 8: 00 a.m. and 9:00 a.m., for three consecutive days. […] Animals from group 2, 3, and 4 were injected with 4 mg/kg body weight methomyl for one, three, and five successive days. The volume injected into the rats of body weight 200 g was 1 ml. […]
Hemoglobin was measured using HLS-hemosafe reagent. The color obtained was measured colorimetrically at 530 nm.

Serum total protein [2] = format: in vivo, rat; settings: female rats; for Serum total protein: for 3 days; for decrease in total protein content: 3 days
plasma ChE = settings: methomyl aerosol, male rats, repeated inhalation; cited from earlier work
[3] = classification; cited from earlier work
[4] = adult female rats, 4 mg/kg body weight, i.p., three days
[5] = adult male rats, 1 mg/kg i.p., for 3 days
[6] = adult male rats, 2 mg/kg i.p., for 3 days
[7] = adult male rats, 4 mg/kg i.p., for 3 days
[8] = adult rats, 4 mg/kg i.p., 1 day of treatment
[9] = adult rats, 4 mg/kg i.p., 3 days of treatment
[10] = adult rats, 4 mg/kg i.p., 5 days of treatment
[11] = old male rats, 4 mg/kg body weight, i.p., three days
[12] = female rats, 4 mg/kg body weight i.p., for 3 days
[13] = male rats, 1 mg/kg body weight i.p., for three days
[14] = male rats, 2 mg/kg body weight i.p., for three days
[15] = male rats, 4 mg/kg body weight i.p., for three days
[16] = female rats, 1 mg/kg body weight i.p., for 3 days
[17] = female rats, 2 mg/kg body weight i.p., for 3 days

In the case of `CNC(=O)ON=C(C)SC` [methomyl, S-methyl-N-(methyl carbomyl)-thioacetimidate], the “Cytochrome P450” value (cytochrome P450; [4]) is reported as 0.21 nmole/mg protein, the “decrease in cytochrome P450 content” value (cytochrome P450; adult male rats, 1 mg/kg i.p., vs control) is reported as 34% and the “Cytochrome P450” value (cytochrome P450; [5]) is reported as 0.27 nmole/mg protein. For the same compound, the “decrease in cytochrome P450 content” value (cytochrome P450; adult male rats, 2 mg/kg i.p., vs control) was 34%, the “Cytochrome P450” value (cytochrome P450; [6]) was 0.27 nmole/mg protein and the “decrease in cytochrome P450 content” value (cytochrome P450; adult male rats, 4 mg/kg i.p., vs control) was 19%. For the same compound, the “decrease in the level of cytochrome P450” value (cytochrome P450; adult male rats, 4 mg/kg i.p., five days, vs control) was 37%, the “Cytochrome P450” value (cytochrome P450; [7]) was 0.33 nmole/mg protein and the “decrease in the level of cytochrome P450” value (cytochrome P450; adult male rats, 4 mg/kg i.p., one day, vs control) was 37%. For the same compound, the “decrease in the level of cytochrome P450” value (cytochrome P450; adult male rats, 4 mg/kg i.p., three days, vs control) was 42%, the “Cytochrome P450” value (cytochrome P450; [8]) was 0.30 nmole/mg protein and the “Cytochrome P450” value (cytochrome P450; [9]) was 0.28 nmole/mg protein. For the same compound, the “Cytochrome P450” value (cytochrome P450; [10]) was 0.30 nmole/mg protein, the “decrease in cytochrome P450” value (cytochrome P450; old male rat, 4 mg/kg i.p., three days, vs control) was 43% and the “Cytochrome P450” value (cytochrome P450; [11]) was 0.20 nmole/mg protein. For the same compound, the “decrease in the activity of aniline hydroxylase” value (Aniline hydroxylase; adult female rat, 4 mg/kg i.p., three days) was 43%, the Aniline hydroxylase (Aniline hydroxylase; [4]) was 0.45 nmole of p-aminophenol formed/min/mg/microsomal protein and the Aniline hydroxylase (Aniline hydroxylase; [5]) was 1.35 nmole of p-aminophenol formed/min/mg microsomalprotein. For the same compound, the Aniline hydroxylase (Aniline hydroxylase; [6]) was 1.17 nmole of p-aminophenol formed/min/mg microsomalprotein, the “decrease in the activity of aniline hydroxylase” value (Aniline hydroxylase; adult male rats, 4 mg/kg i.p., 3 days) was 27% and the “decrease in activity of aniline hydroxylase” value (from here on “decrease in activity”) (Aniline hydroxylase; adult male rats, 4 mg/kg i.p., five days) was 17%. For the same compound, the Aniline hydroxylase (Aniline hydroxylase; [7]) was 0.80 nmole of p-aminophenol formed/min/mg microsomalprotein, the “decrease in activity” value (Aniline hydroxylase; adult male rats, 4 mg/kg i.p., one day) was 47% and the “decrease in activity” value (Aniline hydroxylase; adult male rats, 4 mg/kg i.p., three days) was 71%. The Aniline hydroxylase (Aniline hydroxylase; [8]) was 0.60 nmole of p-aminophenol formed/min/mg/microsomal protein, the Aniline hydroxylase (Aniline hydroxylase; [9]) was 0.33 nmole of p-aminophenol formed/min/mg/microsomal protein and the Aniline hydroxylase (Aniline hydroxylase; [10]) was 0.93 nmole of p-aminophenol formed/min/mg/microsomal protein. The Aniline hydroxylase (Aniline hydroxylase; [11]) was 1.80 nmole of p-aminophenol formed/min/mg/microsomal protein, the Serum total protein (Serum total protein [1]; [12]) was 1.70 g/dL and the “decrease in total protein content” value (Serum total protein [1]; female rats, 4 mg/kg i.p.) was 23%. The Serum total protein (Serum total protein [1]; [13]) was 2.02 g/dL, the “decrease in total protein content” value (Serum total protein [1]; male rats, 1 mg/kg i.p.) was 13% and the Serum total protein (Serum total protein [1]; [14]) was 1.80 g/dL. For the same compound, the “decrease in total protein content” value (Serum total protein [1]; male rats, 2 mg/kg i.p.) was 22%, the Serum total protein (Serum total protein [1]; [15]) was 1.60 g/dL and the “decrease in total protein content” value (Serum total protein [1]; male rats, 4 mg/kg i.p.) was 30%. The Alkaline phosphatase (Alkaline phosphatase; [16]) was 19.0 KA units, the “increase in serum alkaline phosphatase activity” value (shortened to “increase”) (Alkaline phosphatase; female rats, 1 mg/kg i.p.) was 33% and the Alkaline phosphatase (Alkaline phosphatase; [17]) was 23.0 KA units. The “increase” value (Alkaline phosphatase; female rats, 2 mg/kg i.p.) was 61%, the Alkaline phosphatase (Alkaline phosphatase; [12]) was 26.7 KA units and the “increase” value (Alkaline phosphatase; female rats, 4 mg/kg i.p.) was 87%. For the same compound, the Alkaline phosphatase (Alkaline phosphatase; [13]) was 23.4 KA units, the “increase” value (Alkaline phosphatase; male rats, 1 mg/kg i.p.) was 14% and the Alkaline phosphatase (Alkaline phosphatase; [14]) was 26.4 KA units. The “increase” value (Alkaline phosphatase; male rats, 2 mg/kg i.p.) was 29%, the Alkaline phosphatase (Alkaline phosphatase; [15]) was 28.6 KA units and the “increase” value (Alkaline phosphatase; male rats, 4 mg/kg i.p.) was 39%. The “decrease in hemoglobin content” value (Hemoglobin; female rat, 1 mg/kg i.p.) was 21%, the “decrease in hemoglobin content” value (Hemoglobin; female rat, 2 mg/kg i.p.) was 21% and the “decrease in hemoglobin content” value (Hemoglobin; female rat, 4 mg/kg i.p.) was 29%. For the same compound, the Hemoglobin (Hemoglobin; [16]) was 10.06 g/dL, the Hemoglobin (Hemoglobin; [17]) was 10.00 g/dL and the Hemoglobin (Hemoglobin; [12]) was 9.06 g/dL. The “decrease in hemoglobin content” value (Hemoglobin; male rat, 1 mg/kg i.p.) was 16%, the “decrease in hemoglobin content” value (Hemoglobin; male rat, 2 mg/kg i.p.) was 25% and the “decrease in hemoglobin content” value (Hemoglobin; male rat, 4 mg/kg i.p.) was 29%. For the same compound, the Hemoglobin (Hemoglobin; [13]) was 9.60 g/dL, the Hemoglobin (Hemoglobin; [14]) was 8.60 g/dL and the Hemoglobin (Hemoglobin; [15]) was 8.10 g/dL. The Serum total protein (Serum total protein [2]; 1 mg/kg body weight i.p.) was 1.90 g/dL, the “decrease in total protein content” value (Serum total protein [2]; 1 mg/kg i.p.) was 14% and the Serum total protein (Serum total protein [2]; 2 mg/kg body weight i.p.) was 1.96 g/dL. For the same compound, the “decrease in total protein content” value (Serum total protein [2]; 2 mg/kg i.p.) was 11%, the “effect on plasma ChE” value (plasma ChE) was “marked suppression” and the pesticide toxicity category [3] was “category-1”.
